Test results: patent US20250188085A1, “COMPOSITIONS AND METHODS FOR INHIBITION OF RAS” (THERAS, INC., priority 2022, published 2025)
Where two headings read alike, the source gives them in different places.

Assays:
[1] = target: T1, GppNHp-loaded KRAS4b (amino acids 1-169) G12C/C118S protein (Homo sapiens, UniProt P01116, C118S/G12C); test: Covalent cysteine 12 modification by MALDI-TOF MS, GppNHp-loaded KRAS G12C; type: binding; settings: 15 minutes reaction time point
T1 construct: KRAS4b (amino acids 1-169) G12C/C118S protein; made in house
Procedure, shortened: (§1)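 KRAS4b 1-169 G12C/C118S loaded with GDP, GppNHp or GTP was used at 1 μM in 20 mM HEPES, 150 mM NaCl, 1 mM MgCl2, pH 7.3, and incubated with compound (5 mM DMSO stock) at room temperature in the dark. % modification at 15 min is adduct peak height over total protein peak heights by linear-mode MALDI-TOF.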

[2] = target: T2, GTP-loaded KRAS4b (amino acids 1-169) G12C/C118S protein (Homo sapiens, UniProt P01116, C118S/G12C); test: Covalent cysteine 12 modification by MALDI-TOF MS, GTP-loaded KRAS G12C; type: binding; settings: 15 minutes reaction time point
T2 construct: KRAS4b (amino acids 1-169) G12C/C118S protein; made in house
Procedure, shortened: as §1

[3] = target: T3, GDP-loaded KRAS4b (amino acids 1-169) G12C/C118S protein (Homo sapiens, UniProt P01116, C118S/G12C); test: Covalent cysteine 12 modification by MALDI-TOF MS, GDP-loaded KRAS G12C; type: binding; settings: 15 minutes reaction time point
T3 construct: KRAS4b (amino acids 1-169) G12C/C118S protein; made in house
Procedure, shortened: as §1

[4] = target: T4, Avi-KRAS G12C (1-169) GppNHp/RAF1 RBD-3×FLAG (52-151) (Homo sapiens, UniProt P01116, G12C); test: Raf1 RBD-KRAS G12C-GppNHp disruption (protein:protein interaction HTRF assay); type: biochemical
T4 construct: Avi-KRAS G12C (1-169) GppNHp/RAF1 RBD-3×FLAG (52-151)
Procedure, shortened: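 HTRF measuring disruption of 50 nM Avi-KRAS G12C (1-169) loaded with GppNHp binding RAF1 RBD-3×FLAG (52-151), in pH 7.5 Tris buffer with 5 mM MgCl2, 0.1% BSA, 10% DMSO. KRAS preincubated with compound 1 h, then RBD 1 h, then detection reagents 1 h, all at room temperature. Compound titration 30-0.02 μM; activity expressed as percent of DMSO control.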

pERK in NCI-H358 cells = test: Cell-based pERK HTRF assay; settings: 30 min incubation, read-out: pERK in NCI-H358 cell inhibition IC50
Procedure, shortened: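 Cells seeded at 4×10^4/well in RPMI with 10% FBS, then next day treated for 30 min with a 9-point, 3-fold series from 75 μM top concentration at 0.25% DMSO. Lysates were read for pERK by HTRF (d2/Eu cryptate antibodies) after 4–24 h at room temperature, emission at 615 nm.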

| Structure (SMILES) | GppNHp-KRAS G12C percent of modification [1] | GTP-KRAS G12C percent of modification [2] | GDP-KRAS G12C percent of modification [3] | IC50 [4] [nM] | IC50 (pERK in NCI-H358 cells; Homo sapiens, NCI-H358, 0.5 h) [nM] | IC50 (pERK in NCI-H358 cells) [nM] |
| --- | --- | --- | --- | --- | --- | --- |
| C=CC(=O)N1CC[C@@H](Oc2nc(OC[C@@]34CCCN3C[C@H](F)C4)nc3c(F)c(-c4ccc(F)c5sc(N)c(C#N)c45)c(C(F)(F)F)cc23)[C@H]1COC (atropisomer, axis not shown) [Compound 95] | A (percent of modification ≥70%) | A (percent of modification ≥70%) | A (percent of modification ≥70%) | ≤ 500 | ≤ 100 |  |
| C=CC(=O)N1CC[C@@H](Oc2nc(OC[C@@]34CCCN3C[C@H](F)C4)nc3c(F)c(-c4ccc(F)c5sc(N)c(C#N)c45)c(Cl)cc23)[C@@H]1C [Compound 121] | C (10%≤modification <50%) | D (percent of modification <10%) | C (10%≤modification <50%) | ≤ 500 | 100 to 1000 |  |
| C=CC(=O)N1CC[C@@H](Oc2nc(OC[C@@]34CCCN3C[C@H](F)C4)nc3cc(-c4ccc(F)c5sc(N)c(C#N)c45)ccc23)[C@H]1C [Compound 103] | B (50≤percent of modification <70%) | C (10%≤modification <50%) | A (percent of modification ≥70%) | ≤ 500 | ≤ 100 |  |
| C=CC(=O)N1CC[C@@H](Oc2nc(OC[C@@]34CCCN3C[C@H](F)C4)nc3c(F)c(-c4ccc(F)c5sc(N)c(C#N)c45)c(C(F)(F)F)cc23)[C@H]1CC [Compound 114] | C (10%≤modification <50%) | C (10%≤modification <50%) | C (10%≤modification <50%) | ≤ 500 | ≤ 100 |  |
| C=CC(=O)N1C[C@@H](F)[C@@H](Oc2nc(OC[C@@]34CCCN3C[C@H](F)C4)nc3c(F)c(-c4ccc(F)c5sc(N)c(C#N)c45)c(Cl)cc23)C1 [Compound 93] | A (percent of modification ≥70%) | B (50≤percent of modification <70%) | A (percent of modification ≥70%) | ≤ 500 | ≤ 100 |  |
| C=CC(=O)N1CC[C@@H](Oc2nc(OC[C@@]34CCCN3C[C@H](F)C4)nc3c(F)c(-c4ccc(F)c5sc(N)c(C#N)c45)c(C(F)(F)F)cc23)[C@H]1C (single isomer, unassigned) [Compound 63] | A (percent of modification ≥70%) | A (percent of modification ≥70%) | A (percent of modification ≥70%) | ≤ 500 |  | ≤ 100 |
| C=CC(=O)N1C[C@H](Oc2nc(OC[C@@]34CCCN3C[C@H](F)C4)nc3c(F)c(-c4ccc(F)c5sc(N)nc45)c(C(F)(F)F)cc23)C[C@H]1CO [Compound 66] | A (percent of modification ≥70%) | C (10%≤modification <50%) | A (percent of modification ≥70%) | ≤ 500 | ≤ 100 |  |
| C=CC(=O)N1CC[C@@H](Oc2nc(OC[C@@]34CCCN3C[C@H](F)C4)nc3c(F)c(-c4ccc(F)c5sc(N)c(C#N)c45)ncc23)C1 [Compound 56] | A (percent of modification ≥70%) | B (50≤percent of modification <70%) | A (percent of modification ≥70%) | ≤ 500 | ≤ 100 |  |
| C=CC(=O)N1C[C@@H](F)[C@@H](Oc2nc(OC[C@@]34CCCN3C[C@H](F)C4)nc3cc(-c4ccc(F)c5sc(N)c(C#N)c45)c(C(F)(F)F)cc23)C1 [Compound 50] | A (percent of modification ≥70%) | B (50≤percent of modification <70%) | B (50≤percent of modification <70%) | ≤ 500 | ≤ 100 |  |
